Measured values: BindingDB's records for doi:10.1021/jm9508853 (University of Maryland, 2021)
Values belong to the compound of their own block, whether it stands above or below them.

Columns and labels:
[1] = biological target: T1, B-cell lymphoma 6 protein (Homo sapiens, UniProt P41182); test: Inhibition of human BCL6 BTP domain by ELISA assay
[2] = biological target: Casein kinase II subunit alpha 3 (Homo sapiens, UniProt Q8NEV1); test: Inhibition of CK2 (unknown origin)
[3] = biological target: T1, B-cell lymphoma 6 protein; test: Inhibition of human BCL6 BTP domain measured by TR-FRET assay
[4] = biological target: T1, B-cell lymphoma 6 protein; test: Binding affinity to human BCL6 BTP domain assessed as dissociation constant by SPR assay
[5] = biological target: T1, B-cell lymphoma 6 protein; test: Inhibition of human BCL6 BTP domain measured by cell reporter assay
[6] = biological target: T1, B-cell lymphoma 6 protein; test: Inhibition of human BCL6 BTP domain
[7] = biological target: T1, B-cell lymphoma 6 protein; test: Inhibition of human BCL6 BTP domain measured by fluorescence polarization assay
[8] = biological target: T1, B-cell lymphoma 6 protein; test: Irreversible inhibition of human BCL6 BTP domain measured by TR-FRET assay
[9] = biological target: T1, B-cell lymphoma 6 protein; test: Reversible inhibition of human BCL6 BTP domain measured by TR-FRET assay

Casein kinase II subunit alpha 3, sequence (Q8NEV1 whole entry, the tested form may be a part): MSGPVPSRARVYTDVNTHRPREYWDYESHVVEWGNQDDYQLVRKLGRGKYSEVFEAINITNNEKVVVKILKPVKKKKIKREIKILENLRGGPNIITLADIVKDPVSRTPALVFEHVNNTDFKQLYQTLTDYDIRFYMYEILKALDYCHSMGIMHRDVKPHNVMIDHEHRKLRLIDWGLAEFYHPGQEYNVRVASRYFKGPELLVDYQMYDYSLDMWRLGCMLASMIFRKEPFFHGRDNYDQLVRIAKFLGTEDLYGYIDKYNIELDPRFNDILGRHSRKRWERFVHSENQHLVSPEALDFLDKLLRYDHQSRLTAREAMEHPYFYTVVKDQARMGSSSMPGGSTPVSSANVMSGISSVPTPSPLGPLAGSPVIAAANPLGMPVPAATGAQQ

- IC50 [1]: 620 µM
SMILES: CSCC[C@H](N)C(=O)N[C@@H](CO)C(=O)N[C@@H](Cc1c[nH]c2ccccc12)C(=O)N[C@@H](CCCNC(=N)N)C(=O)N[C@H](C(=O)N1CCC[C@H]1C(=O)O)C(C)C

- IC50 [2]: > 10 µM
SMILES: O=C1CCc2cc3cc(c2N1Cc1ccccc1)OC/C=C/CO[C@H]1C[C@@H](CO)N(C1)c1cc(n2ncc(Cl)c2n1)N3

- IC50 [2]: > 10 µM
SMILES: Cc1ccccc1CN1C(=O)CCc2cc3cc(c21)OC/C=C/CO[C@H]1C[C@@H](CO)N(C1)c1cc(n2ncc(Cl)c2n1)N3

- IC50 [2]: > 10 µM
SMILES: COc1cccc(CN2C(=O)CCc3cc4cc(c32)OC/C=C/CO[C@H]2C[C@@H](CO)N(C2)c2cc(n3ncc(Cl)c3n2)N4)c1

- Kd [4]: 690 µM
SMILES: CCNc1cc(-c2cccnc2)nc2ccnn12

- IC50 [6]: 0.012 µM
SMILES: CNC(=O)COc1cc2cc(Nc3nc(-n4nc(C)cc4C)ncc3Cl)ccc2n(C)c1=O

- IC50 [3]: 0.35 µM
- Kd [4]: 1.1 µM
SMILES: N#Cc1cnn2c(Nc3ccc4c(c3)CCC(=O)N4)cc(N3CCC[C@H]3CC(=O)O)nc12

- IC50 [9]: 0.368 µM
SMILES: CNC(=O)COc1cc2cc(Nc3nc(NCc4cccc(S(C)(=O)=O)c4)ncc3Cl)cc(OC)c2n(C)c1=O

Second part, the compound before the results:

SMILES: CC(=O)N[C@@H](Cc1c[nH]c2ccccc12)C(=O)N[C@@H](CCCNC(=N)N)C(=O)N[C@H](C(=O)N1CCC[C@H]1C(=O)O)C(C)C
- IC50 [1]: 170 µM

SMILES: CC(C)[C@H](NC(=O)[C@H](CCCNC(=N)N)NC(=O)[C@H](Cc1c[nH]c2ccccc12)NC(=O)[C@@H](N)CO)C(=O)N1CCC[C@H]1C(=O)O
- IC50 [1]: 1500 µM

SMILES: N#Cc1cnn2c3cc(nc12)N1C[C@H](C[C@H]1CO)OC/C=C/COc1cc(cc2c1NC(=O)CC2)N3
- IC50 [3]: 0.0029 µM
- Kd [4]: 0.0065 µM
- IC50 [5]: 2 µM
- IC50 [2]: 0.64 µM

SMILES: Nc1ncc(Cl)c(Nc2ccccc2)n1
- Kd [4]: 68 µM

SMILES: CN(c1ncccc1CNc1nc(Nc2ccc3c(c2)CC(=O)N3)ncc1C(F)(F)F)S(C)(=O)=O
- Kd [4]: 88 µM

SMILES: N#Cc1cnn2c(Nc3ccc4c(c3)CCC(=O)N4)cc(N3CCC[C@H]3CO)nc12
- IC50 [3]: 0.37 µM
- Kd [4]: 0.5 µM

SMILES: N#Cc1c(NCC2CC2)ccnc1Cl
- IC50 [7]: 207 µM

SMILES: Cn1c(=O)n(C)c2cc(Nc3ncccc3C#N)ccc21
- IC50 [7]: 86 µM

SMILES: Cn1c(=O)n(C)c2cc(Nc3cc(SCc4ccccc4)ncn3)ccc21
- IC50 [7]: 70 µM

SMILES: N#Cc1c(NCc2ccccc2)ccnc1Cl
- IC50 [7]: 120 µM

SMILES: Cn1c(=O)n(CCC(C)(C)O)c2cc(Nc3ccnc(Cl)c3C#N)ccc21
- IC50 [3]: 0.86 µM

SMILES: O=C1Cc2cc(Nc3nc(NCc4cccc(S(=O)(=O)F)c4)ncc3Cl)ccc2N1
- IC50 [8]: 0.251 µM

SMILES: CNC(=O)COc1cc2cc(Nc3nc(NCc4cccc(S(=O)(=O)F)c4)ncc3Cl)cc(OC)c2n(C)c1=O
- IC50 [8]: 0.152 µM

SMILES: Cc1cc(C)n(-c2ncc(Cl)c(Nc3ccc(Cl)cc3)n2)n1
- IC50 [6]: > 20 µM

SMILES: Nc1ncnc(Nc2ccccc2Cl)n1
- IC50 [3]: 830 µM

SMILES: Nc1ncnc(Nc2ccccc2)n1 [Amanozine]
- Kd [4]: 1200 µM
